# Assay results: paper PMC11240139, “Exploring the antitumor potential of novel quinoline derivatives via tubulin polymerization inhibition in breast cancer; design, synthesis and molecular docking” (RSC Advances, 2024)
# Experiments:
# Assay in all cases: NCI-60 SRB cytotoxicity screen
# Type in all cases: cell-based
# CCRF-CEM (leukemia) = conditions: Homo sapiens, single dose 10 μM, read-out: growth inhibition (GI%)
# MOLT-4 (leukemia) = conditions: Homo sapiens; MOLT-4, single dose 10 μM; read-out: growth inhibition (GI%)
# SR (leukemia) = conditions: single dose 10 μM; for inhibition at 10 µM: read-out: growth inhibition (GI%)
# [1] = test system: EKVX (non-small cell lung cancer); conditions: Homo sapiens, single dose 10 μM, read-out: growth inhibition (GI%)
# HCT-15 (colon cancer) = conditions: Homo sapiens; HCT-15, single dose 10 μM; read-out: growth inhibition (GI%)
# HT29 (colon cancer) = conditions: Homo sapiens, HT-29; HT29, single dose 10 μM; read-out: growth inhibition (GI%)
# SW-620 (colon cancer) = conditions: Homo sapiens; SW-620, single dose 10 μM; read-out: growth inhibition (GI%)
# SF-268 (CNS cancer) = conditions: Homo sapiens; SF-268, single dose 10 μM; read-out: growth inhibition (GI%)
# SF-295 (CNS cancer) = conditions: Homo sapiens; SF-295, single dose 10 μM; read-out: growth inhibition (GI%)
# SF-539 (CNS cancer) = conditions: Homo sapiens; SF-539, single dose 10 μM; read-out: growth inhibition (GI%)
# SNB-19 (CNS cancer) = conditions: Homo sapiens; SNB-19, single dose 10 μM; read-out: growth inhibition (GI%)
# MALME-3M (melanoma) = conditions: Homo sapiens, single dose 10 μM, read-out: growth inhibition (GI%)
# UACC-257 (melanoma) = conditions: Homo sapiens; UACC-257, single dose 10 μM; read-out: growth inhibition (GI%)
# IGROV1 (ovarian cancer) = conditions: Homo sapiens, IGROV-1; IGROV1, single dose 10 μM; read-out: growth inhibition (GI%)
# OVCAR-3 (ovarian cancer) = conditions: Homo sapiens; OVCAR-3, single dose 10 μM; read-out: growth inhibition (GI%)
# OVCAR-4 (ovarian cancer) = conditions: Homo sapiens; OVCAR-4, single dose 10 μM; read-out: growth inhibition (GI%)
# OVCAR-5 (ovarian cancer) = conditions: Homo sapiens; OVCAR-5, single dose 10 μM; read-out: growth inhibition (GI%)
# [2] = test system: NCI/ADR-RES (ovarian cancer); conditions: Homo sapiens, single dose 10 μM, read-out: growth inhibition (GI%)
# SK-OV-3 (ovarian cancer) = conditions: Homo sapiens; SK-OV-3, single dose 10 μM; read-out: growth inhibition (GI%)
# RXF 393 (renal cancer) = conditions: Homo sapiens; RXF 393, single dose 10 μM; read-out: growth inhibition (GI%)
# MCF7 (breast cancer) = conditions: Homo sapiens; MCF7, single dose 10 μM; read-out: growth inhibition (GI%)
# [3] = test system: MDA-MB-231/ATCC (breast cancer); conditions: Homo sapiens, MDA-MB-231, read-out: growth inhibition (GI%)
# BT-549 (breast cancer) = conditions: Homo sapiens; BT-549, single dose 10 μM; read-out: growth inhibition (GI%)
# T-47D (breast cancer) = conditions: Homo sapiens, T47D, single dose 10 μM, read-out: growth inhibition (GI%)
# [4] = test system: MDA-MB-468 (breast cancer); conditions: Homo sapiens; MDA-MB-468, single dose 10 μM; read-out: growth inhibition (GI%)
# Method: The cytotoxic activity of the synthesized quinoline derivatives was determined by the national cancer institute (NCI, Bethesda, Maryland, USA) against 60 different cancer cell lines at a single high dose (10^−5 M) in the full NCI 60 cell panel using the sulforhodamine B assay for cell viability evaluation. In summary, 5 × 10^3 cells were in 96-well plate and incubated in complete media for 24 h. Cells were treated with 100 μL of media containing each newly synthesized compound. After drug exposure, cells were fixed by replacing media with 150 μL of 10% TCA and incubated at 4 °C for 1 h. The TCA solution was removed, and the cells were washed 5 times with distilled water. Aliquots of 70 μL SRB solution (0.4% w/v) were added and incubated in a dark place at room temperature for 10 min. The plates were washed 3 times with 1% acetic acid and allowed to air-dry overnight. Then, 150 μL of TRIS (10 mM) was added to dissolve protein-bound SRB stain. The absorbance was measured at 540 nm.% Cytotoxicity = [1 − (AVx/AVNC)] × 100where AVx denotes the average absorbance of the sample well and AVNC denotes the average absorbance of the negative control.
# The methodology of the NCI anticancer screening has been described in details at (http://www.dtp.nci.nih.gov). The anticancer assay was performed in full NCI 60 cell lines derived from nine tumor subpanels, including leukemia, lung, colon, CNS, melanoma, ovarian, renal, prostate, and breast cancer cell lines.
# The cell lines were first cultured for 48 h, after being exposed to a single dosage of the compound. Using the protein-binding dye sulforhodamine B dye, cell proliferation and viability were evaluated (SRB assay). The results were presented for each chemical as GI%. Compound that met NCI criteria for substantial activity were further evaluated using a five-dose experiment. The NCI60 cell lines were treated with the chemicals in this assay at five different concentration levels (0.01, 0.1, 1, 10, and 100 μM).
SMILES,inhibition at 10 µM (CCRF-CEM (leukemia)),inhibition at 10 µM (MOLT-4 (leukemia)),inhibition at 10 µM [1],inhibition at 10 µM (HCT-15 (colon cancer)),inhibition at 10 µM (HT29 (colon cancer)),inhibition at 10 µM (SW-620 (colon cancer)),inhibition at 10 µM (SF-268 (CNS cancer)),inhibition at 10 µM (SF-295 (CNS cancer)),inhibition at 10 µM (SF-539 (CNS cancer)),inhibition at 10 µM (SNB-19 (CNS cancer)),inhibition at 10 µM (MALME-3M (melanoma)),inhibition at 10 µM (UACC-257 (melanoma)),inhibition at 10 µM (IGROV1 (ovarian cancer)),inhibition at 10 µM (OVCAR-3 (ovarian cancer)),inhibition at 10 µM (OVCAR-4 (ovarian cancer)),inhibition at 10 µM (OVCAR-5 (ovarian cancer)),inhibition at 10 µM [2],inhibition at 10 µM (SK-OV-3 (ovarian cancer)),inhibition at 10 µM (RXF 393 (renal cancer)),inhibition at 10 µM (MCF7 (breast cancer)),also measured
"CCc1cccc2cc(C=CC(=O)c3ccc(OC)cc3)c(Cl)nc12 [Compound 3a, 3-(2-Chloro-8-ethylquinolin-3-yl)-1-(4-methoxyphenyl)prop-2-en-1-one]",26.9%,16.8%,< 10%,< 10%,< 10%,< 10%,< 10%,< 10%,18.9%,< 10%,< 10%,< 10%,< 10%,< 10%,13.5%,< 10%,< 10%,< 10%,23.8%,18%,inhibition at 10 µM (SR (leukemia)): 38.4%; inhibition at 10 µM [3]: < 10%; inhibition at 10 µM (BT-549 (breast cancer)): 22.5%; inhibition at 10 µM (T-47D (breast cancer)): 44%; inhibition at 10 µM [4]: < 10%
"CCc1cccc2cc(C=CC(=O)c3ccc(OC)c(OC)c3)c(Cl)nc12 [Compound 3b, 3-(2-Chloro-8-ethylquinolin-3-yl)-1-(3,4-dimethoxyphenyl)prop-2-en-1-one]",65%,49.2%,< 10%,20.4%,26.9%,72.2%,< 10%,21.8%,99.4%,54.4%,< 10%,< 10%,< 10%,31.7%,42.3%,12.5%,45.8%,< 10%,22.1%,37.1%,growth inhibition (GI%) (SR (leukemia)): 80.06%; inhibition at 10 µM (SR (leukemia)): 80.1%; inhibition at 10 µM [3]: 29.3%; inhibition at 10 µM (BT-549 (breast cancer)): 50.3%; inhibition at 10 µM (T-47D (breast cancer)): 57.9%; inhibition at 10 µM [4]: 39.8%
"CCc1cccc2cc(C3C=C(c4ccc(OC)c(OC)c4)NC(=S)N3)c(Cl)nc12 (stereo not drawn) [Compound 6b, 4-(2-Chloro-8-ethylquinolin-3-yl)-6-(3,4-dimethoxyphenyl)-3,4-dihydropyrimidine-2(1H)-thione]",11%,53.3%,< 10%,< 10%,< 10%,< 10%,16.6%,< 10%,< 10%,< 10%,< 10%,< 10%,< 10%,< 10%,19.9%,< 10%,11.1%,< 10%,< 10%,15.7%,inhibition at 10 µM [3]: < 10%; inhibition at 10 µM (BT-549 (breast cancer)): 12.8%; inhibition at 10 µM (T-47D (breast cancer)): 24.9%; inhibition at 10 µM [4]: 13.2%
"CCc1cccc2cc(C3C=C(c4cc(OC)c(OC)c(OC)c4)NC(=S)N3)c(Cl)nc12 (stereo not drawn) [Compound 6c, 4-(2-Chloro-8-ethylquinolin-3-yl)-6-(3,4,5-trimethoxyphenyl)-3,4-dihydropyrimidine-2(1H)-thione]",32.9%,67.7%,37.9%,30.9%,36.4%,13.4%,42.4%,30%,30.3%,23.4%,< 10%,13.1%,14.3%,14.2%,48.9%,< 10%,34%,< 10%,40.6%,44.3%,inhibition at 10 µM [3]: 46.1%; inhibition at 10 µM (BT-549 (breast cancer)): 10.5%; inhibition at 10 µM (T-47D (breast cancer)): 48.6%; inhibition at 10 µM [4]: 40.5%
